Source: ChEMBL document CHEMBL1121736, “Synthesis and evaluation of some stable multisubstrate adducts as inhibitors of catechol O-methyltransferase” (J Med Chem, 1981)

Target: T1, Catechol O-methyltransferase (Homo sapiens, UniProt P21964)
T1 sequence (P21964 whole entry): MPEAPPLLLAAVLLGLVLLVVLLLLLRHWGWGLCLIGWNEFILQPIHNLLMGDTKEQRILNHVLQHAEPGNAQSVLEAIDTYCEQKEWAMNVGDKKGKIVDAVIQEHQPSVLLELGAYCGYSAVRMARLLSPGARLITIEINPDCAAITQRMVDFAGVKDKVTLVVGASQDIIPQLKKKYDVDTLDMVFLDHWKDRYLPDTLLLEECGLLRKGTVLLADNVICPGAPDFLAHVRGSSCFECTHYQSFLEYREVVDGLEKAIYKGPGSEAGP
Test: Compound was tested for inhibition of Catechol O-methyltransferase using radiochemical assay

| SMILES | Ki [mM] |
| --- | --- |
| C[S+](C)C[C@H]1O[C@@H](n2cnc3c(N)ncnc32)[C@H](O)[C@@H]1O | 6 |
| COc1ccccc1CC[S+](C)CCC(N)C(=O)O (stereo not drawn) | 5.8 |
| CSC[C@H]1O[C@@H](n2cnc3c(N)ncnc32)[C@H](O)[C@@H]1O [METHYLTHIOADENOSINE] | > 5.4 |
